Assay results as given in article PMC7719179, “Small molecule inhibition of Dynamin-dependent endocytosis targets multiple niche signals and impairs leukemia stem cells” (Nature Communications, 2020).
Several values for one entry are separate records, joined by “and”; a condition that tells them apart may be missing. Identical values can stand only once. Like-named read-outs stand apart in the source and are kept apart here.

Tests used:
[1] = system: pStat5 and Hes1 in DN3a cells; test: pStat5 and Hes1 in DN3a cells from treated Lmo2^Tg mice (flow cytometry); type: in vivo, mouse
Method: The synthesis of Dynole 34-2 and Dyngo 4a compounds was performed as previously described[32],[33] and was kindly provided by A. McCluskey. For in vitro assays, the specific Dynamin inhibitors Dynole 34-2, Dyngo 4a and Dynasore (#S8047, Selleckchem, Sapphire Bioscience Pty Ltd, Redfern NSW, Australia) were made as stock solutions in 100% dimethyl sulfoxide (DMSO), which were stored frozen. These compounds were diluted in 50% v/v DMSO/20 mM Tris-HCl pH 7.4 immediately prior to use. For in vivo administration, Dynole 34-2 was resuspended in pre-warmed HRC#5 (Pharmatek, San Diego CA, USA) 1 : 9 phosphate-buffered saline (PBS) 1× pH 7.4 at 37 °C, and sonicated 10 times for 30 s using a Bioruptor Plus (Biogenode) immediately prior to injection at 30 mg/kg, twice daily.
Phosphoflow analysis was performed as previously described. Briefly, 2 × 10^6 cells stained for surface markers were subsequently resuspended into PBS 1× + 4% v/v paraformaldehyde and incubated for 10 min at 4 °C for fixation. Fixed cells were washed twice using PBS 1×, then resuspended in pre-chilled at −20 °C Perm Buffer III (BD Pharmingen) and incubated 30 min at 4 °C for permeabilization. Cells were washed twice using PBS 1× and incubated overnight at 4 °C in PBS 1× + 2% v/v fetal calf serum (FCS) with Cell Signalling purified antibodies (Genesearch Pty Ltd, Arundel QLD, Australia) against pSTAT5 (Tyr694; #9359), phospho-p38 MAPK (Thr180/Tyr182; #4511), phospho-p44/42 (Erk1/2; #9102), phospho-S6 (Ser235/236; #4856) and phospho-Akt (Ser473; #9271) or isotype control. For intracellular HES1 detection, cells stained for surface markers were subsequently fixed and permeabilized using the BD Cytofix/Cytoperm^TM Kit and incubated overnight at 4 °C in PBS 1× + 2% v/v FCS with a purified antibody against HES1 (D6PU; #11988, Cell Signalling) or isotype control. After staining with primary antibodies for phosphoflow or intracellular detection, cells were incubated in permeabilization buffer with donkey Alexa Fluor 488-conjugated anti-rabbit secondary antibody (A-21206, lot #1910751, Molecular Probes, Invitrogen) or goat Alexa Fluor 546-conjugated anti-rabbit secondary antibody (A-11035, lot #1904467, Molecular Probes, Invitrogen) for 1 h on ice, and washed twice in PBS 1×. Fluorescence-activated cell sorting (FACS) analysis was performed using LSRII and LSR Fortessa cytometers, following the gating strategies described in Supplementary Fig. 11. Cell sorting was performed with a FACSAria or BD Influx.

[2] = system: pre-LSCs within the DN3a thymocyte population of Lmo2^Tg mice; test: Limiting dilution transplantation assay, pre-LSC frequency; type: in vivo, mouse
Method: (§1) Single-cell suspension of murine thymus cells were intravenously injected into sublethally irradiated (650 Rads) isogenic Ly5.1 (Cd45.1) mice. Fold expansion was calculated by dividing the absolute output number of donor-derived DN3a cells harvested at the experimental endpoint by the respective number of DN3a thymocytes injected in each recipient. Limiting dilution transplantations were performed as described, by injecting various doses (10^1 to 10^6) of thymocytes per recipient, and mice were scored positive when T-cell lineage reconstitution assessed 6 weeks after transplantation was >1%. Leukemia-propagating cell frequency was calculated by applying Poisson statistics using the ELDA: Extreme Limiting Dilution Analysis software (Walter and Eliza Hall Institute Bioinformatics, Parkville VIC, Australia)[96]. Limiting dilution transplantations were performed independently from any other transplantation assays, using thymocytes from three different Lmo2^Tg mice for each cohort. Kaplan–Meier survival and statistical analysis were performed using GraphPad Prism. 6.0 software (GraphPad Software Inc, San Diego CA, USA).

[3] = system: pre-LSC self-renewal activity; test: Fold expansion after transplantation of DN3a thymocytes from treated Lmo2^Tg mice; type: in vivo, mouse; conditions: recipients of DN3a thymocytes from treated Lmo2^Tg mice; individual animals
Method: as §1

primary Lmo2^Tg T-ALL = test: Relative viability and LC50 on primary Lmo2^Tg leukemias, 48 h; type: cell-based, mouse; parameters: Relative % viable cells: unit of the concentration uncertain; conditions: for viability at 200 µM / viability at 40 µM: Mus musculus
Method: Supplementary Figure 6 . Efficacy of Dynole 34-2 on primary Lmo2-transgenic T-ALL. a, Relative viability (%) of primary Lmo2Tg leukemias treated with increasing concentration of Dynole 34-2 for 48 hours. Viability was normalized to vehicle-treated cells with experiments performed in duplicates or triplicates. […]
concentration (LC50) of Dynole 34-2 for each primary L mo2Tg T-ALL are indicated (right panel). […]

CCCCCCCCNC(=O)C(C#N)=Cc1cn(CCCN(C)C)c2ccccc12 [Dynole 34-2, 2-Cyano-N-octyl-3-(1-(3-dimethylaminopropyl)-1H-indol-3-yl)-acrylamide]
Hes1 (MFI) ([1]; DN3a cells from treated Lmo2^Tg mice): 22166 MFI and 17427 MFI and 19107 MFI and 15447 MFI | Hes1 (MFI) ([1]; GFPhi DN3a cells): 2603 MFI and 2496 MFI and 2588 MFI and 2307 MFI and 2171 MFI | pStat5 (MFI) ([1]; GFPhi DN3a cells): 1253 MFI and 1075 MFI and 1590 MFI and 1503 MFI and 1019 MFI | Hes1 (MFI) ([1]; GFPlo DN3a cells): 2885 MFI and 2559 MFI and 2562 MFI and 2408 MFI and 2317 MFI | pStat5 (MFI) ([1]; GFPlo DN3a cells): 1761 MFI and 1433 MFI and 1767 MFI and 1648 MFI and 1460 MFI | Limiting dilution assay, Response (positive recipients) ([2]; cell dose 106, 9 recipients tested): 0 | Limiting dilution assay, Response (positive recipients) ([2]; cell dose 1060, 9 recipients tested): 0 | Limiting dilution assay, Response (positive recipients) ([2]; cell dose 10602, 6 recipients tested): 3 | Limiting dilution assay, Response (positive recipients) ([2]; cell dose 106020, 6 recipients tested): 5 | fold decrease in pre-LSC frequency ([2]; treated Lmo2^Tg mice vs vehicle): 100 fold | Fold expansion DN3a cells [3]: 3.5 fold and 2.36 fold and 9.11 fold and 4.77 fold and 13.12 fold and 6.34 fold and 25.03 fold and 63.73 fold and 32.46 fold | viability at 200 µM (primary Lmo2^Tg T-ALL; read-out: Relative % viable cells, T-ALL 249, dose 0.2 mM): 94.3% | viability at 40 µM (primary Lmo2^Tg T-ALL; read-out: Relative % viable cells, T-ALL 257, dose 0.04 mM): 92.3% | viability at 200 µM (primary Lmo2^Tg T-ALL; read-out: Relative % viable cells, T-ALL 257, dose 0.2 mM): 76.4% | viability at 200 µM (primary Lmo2^Tg T-ALL; read-out: Relative % viable cells, T-ALL 273, dose 0.2 mM): 96.1% | viability at 200 µM (primary Lmo2^Tg T-ALL; read-out: Relative % viable cells, T-ALL 582, dose 0.2 mM): 97.6% | viability at 40 µM (primary Lmo2^Tg T-ALL; read-out: Relative % viable cells, T-ALL 588, dose 0.04 mM): 114% | Relative % viable cells (primary Lmo2^Tg T-ALL; T-ALL 249, dose 0.2 (unit uncertain)): 101.0% and 98.6% | Relative % viable cells (primary Lmo2^Tg T-ALL; T-ALL 249, dose 1 (unit uncertain)): 97.4% | Relative % viable cells (primary Lmo2^Tg T-ALL; T-ALL 249, dose 5 (unit uncertain)): 98.6% and 97.8% | Relative % viable cells (primary Lmo2^Tg T-ALL; T-ALL 249, dose 25 (unit uncertain)): 14.0% | Relative % viable cells (primary Lmo2^Tg T-ALL; T-ALL 257, dose 0.04 (unit uncertain)): 86.6% | Relative % viable cells (primary Lmo2^Tg T-ALL; T-ALL 257, dose 0.2 (unit uncertain)): 75.9% | Relative % viable cells (primary Lmo2^Tg T-ALL; T-ALL 257, dose 1 (unit uncertain)): 71.8% | Relative % viable cells (primary Lmo2^Tg T-ALL; T-ALL 257, dose 5 (unit uncertain)): 49.8% | Relative % viable cells (primary Lmo2^Tg T-ALL; T-ALL 273, dose 0.2 (unit uncertain)): 96.5% and 91.9% | Relative % viable cells (primary Lmo2^Tg T-ALL; T-ALL 273, dose 1 (unit uncertain)): 92.9% and 93.1% | Relative % viable cells (primary Lmo2^Tg T-ALL; T-ALL 273, dose 5 (unit uncertain)): 56.4% and 42.9% | Relative % viable cells (primary Lmo2^Tg T-ALL; T-ALL 273, dose 10 (unit uncertain)): 20.2% and 18.0% | Relative % viable cells (primary Lmo2^Tg T-ALL; T-ALL 273, dose 25 (unit uncertain)): 17.9% | Relative % viable cells (primary Lmo2^Tg T-ALL; T-ALL 582, dose 0.2 (unit uncertain)): 94.2% | Relative % viable cells (primary Lmo2^Tg T-ALL; T-ALL 582, dose 1 (unit uncertain)): 97.3% | Relative % viable cells (primary Lmo2^Tg T-ALL; T-ALL 582, dose 5 (unit uncertain)): 75.4% and 57.9% | Relative % viable cells (primary Lmo2^Tg T-ALL; T-ALL 582, dose 10 (unit uncertain)): 8.4% and 8.6% | Relative % viable cells (primary Lmo2^Tg T-ALL; T-ALL 582, dose 25 (unit uncertain)): 6.2% | Relative % viable cells (primary Lmo2^Tg T-ALL; T-ALL 588, dose 0.04 (unit uncertain)): 111.1% | Relative % viable cells (primary Lmo2^Tg T-ALL; T-ALL 588, dose 0.2 (unit uncertain)): 107.5% and 75.9% | Relative % viable cells (primary Lmo2^Tg T-ALL; T-ALL 588, dose 1 (unit uncertain)): 100.1% | Relative % viable cells (primary Lmo2^Tg T-ALL; T-ALL 588, dose 5 (unit uncertain)): 75.8% | Relative % viable cells (primary Lmo2^Tg T-ALL; T-ALL 588, dose 25 (unit uncertain)): 11.9% | Relative % viable cells (primary Lmo2^Tg T-ALL; T-ALL 742, dose 0.2 (unit uncertain)): 53.7% and 80.5% | Relative % viable cells (primary Lmo2^Tg T-ALL; T-ALL 742, dose 1 (unit uncertain)): 25.7% | Relative % viable cells (primary Lmo2^Tg T-ALL; T-ALL 742, dose 5 (unit uncertain)): 22.9% | Relative % viable cells (primary Lmo2^Tg T-ALL; T-ALL 742, dose 25 (unit uncertain)): 0.0% | killing of LSCs from primary Lmo2^Tg T-ALL (primary Lmo2^Tg T-ALL; result in words): dose-dependent killing
